Data taken from PMC4119689, “Investigation of the Interaction between Patulin and Human Serum Albumin by a Spectroscopic Method, Atomic Force Microscopy, and Molecular Modeling” (BioMed Research International, 2014).

Target: T1, human serum albumin (HSA) (Homo sapiens, UniProt P02768)
T1 construct: gene ALB
Assay: Trp-214 fluorescence quenching titration (association constant KA at […] K), supported by time-resolved fluorescence, UV-Vis, CD and AFM; quenching described as dynamic
Format: binding
Details: read-out: Equation (3) / K A/M^-1 (converted)

T1 sequence (P02768 25-609): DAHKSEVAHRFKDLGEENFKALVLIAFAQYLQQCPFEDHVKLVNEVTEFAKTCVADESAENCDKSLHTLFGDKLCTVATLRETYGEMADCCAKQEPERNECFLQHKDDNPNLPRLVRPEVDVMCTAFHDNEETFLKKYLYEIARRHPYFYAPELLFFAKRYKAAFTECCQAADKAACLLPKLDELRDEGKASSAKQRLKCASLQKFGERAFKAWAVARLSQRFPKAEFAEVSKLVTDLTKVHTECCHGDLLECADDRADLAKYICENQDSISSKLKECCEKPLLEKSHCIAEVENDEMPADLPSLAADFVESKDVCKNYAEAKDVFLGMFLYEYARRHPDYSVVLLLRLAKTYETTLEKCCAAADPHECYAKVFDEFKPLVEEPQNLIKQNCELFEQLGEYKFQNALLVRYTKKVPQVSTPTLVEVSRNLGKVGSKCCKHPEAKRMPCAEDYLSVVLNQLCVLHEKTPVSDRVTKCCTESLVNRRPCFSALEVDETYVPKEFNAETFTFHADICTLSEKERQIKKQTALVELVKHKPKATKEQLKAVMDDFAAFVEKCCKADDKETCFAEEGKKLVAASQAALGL

O=C1C=C2C(=CCOC2O)O1 (stereo not shown) [patulin]
Kd: 38.5 µM
